Five compounds from ChEMBL document CHEMBL5338824 (J Med Chem, 2023) can be followed below.

By Emax is commonly meant the size of the effect at its maximum, as opposed to the concentration needed. For orientation: DC50 means the concentration at which degradation of the target reaches its halfway point. For orientation: IC50 means the concentration needed to halve the response being measured. A word on the inhibition in vivo: it is how much of the control response was suppressed.

Structures are written as SMILES. The source made the active and inactive calls. The calls are words filed in the database; no cut-off is given here.

Series [1] has as its target T1, Protein cereblon/Bromodomain-containing protein 2 (Homo sapiens, UniProt P25440+Q96SW2). Conditions: MV4-11, dose 0.1-1000 nM, time 4.0 hrs.
Target sequence in this assay (P25440 whole entry, looked up): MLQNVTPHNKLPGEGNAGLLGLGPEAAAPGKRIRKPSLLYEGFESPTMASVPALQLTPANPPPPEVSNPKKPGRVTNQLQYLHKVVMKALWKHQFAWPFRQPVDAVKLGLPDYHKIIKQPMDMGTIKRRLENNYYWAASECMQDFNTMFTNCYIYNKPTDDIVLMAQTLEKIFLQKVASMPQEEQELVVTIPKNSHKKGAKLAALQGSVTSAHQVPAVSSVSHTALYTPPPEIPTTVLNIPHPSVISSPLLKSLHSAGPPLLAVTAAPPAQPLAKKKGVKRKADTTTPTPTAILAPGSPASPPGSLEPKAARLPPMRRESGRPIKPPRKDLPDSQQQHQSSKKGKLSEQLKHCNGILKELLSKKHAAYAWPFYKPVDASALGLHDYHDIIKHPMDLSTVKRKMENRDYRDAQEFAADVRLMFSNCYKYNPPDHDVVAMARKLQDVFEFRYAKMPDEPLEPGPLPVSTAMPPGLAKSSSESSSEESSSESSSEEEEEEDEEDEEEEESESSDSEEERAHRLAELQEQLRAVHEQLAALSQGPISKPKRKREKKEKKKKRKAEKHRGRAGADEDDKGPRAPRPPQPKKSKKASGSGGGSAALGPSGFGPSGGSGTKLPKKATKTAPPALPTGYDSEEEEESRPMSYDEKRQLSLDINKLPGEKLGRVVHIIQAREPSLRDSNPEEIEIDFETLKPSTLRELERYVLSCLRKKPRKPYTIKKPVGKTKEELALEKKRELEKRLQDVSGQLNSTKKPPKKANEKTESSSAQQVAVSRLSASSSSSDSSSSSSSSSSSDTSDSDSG
Target sequence in this assay (Q96SW2 whole entry, looked up): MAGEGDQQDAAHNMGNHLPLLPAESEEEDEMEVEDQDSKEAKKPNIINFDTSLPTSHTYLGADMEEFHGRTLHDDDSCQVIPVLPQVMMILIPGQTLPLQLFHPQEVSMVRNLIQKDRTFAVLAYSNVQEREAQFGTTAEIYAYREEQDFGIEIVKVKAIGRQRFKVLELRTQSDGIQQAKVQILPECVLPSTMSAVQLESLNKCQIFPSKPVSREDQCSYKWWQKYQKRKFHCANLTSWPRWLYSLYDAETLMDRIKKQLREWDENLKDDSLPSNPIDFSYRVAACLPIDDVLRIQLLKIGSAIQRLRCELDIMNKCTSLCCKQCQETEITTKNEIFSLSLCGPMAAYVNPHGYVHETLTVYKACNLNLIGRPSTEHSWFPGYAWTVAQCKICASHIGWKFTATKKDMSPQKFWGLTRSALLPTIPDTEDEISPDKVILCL
Series [2] deals with T1, Protein cereblon/Bromodomain-containing protein 2. The series is described as follows: PROTAC activity at CRBN/BRD2 in human MV4-11 cells assessed as degradation of BRD2 protein level incubated for 4 hrs by Western blotting assay. In kind it is cell-based.
Target sequence in this assay (P25440 whole entry): as the sequence (P25440 whole entry, looked up) above
Target sequence in this assay (Q96SW2 whole entry): as the sequence (Q96SW2 whole entry, looked up) above
Series [3] addresses T2, Protein cereblon/Bromodomain-containing protein 4 (Homo sapiens, UniProt O60885+Q96SW2). The series is described as follows: PROTAC activity at CRBN/BRD4 in human MV4-11 cells assessed as degradation of BRD4 protein level incubated for 4 hrs by Western blotting assay. In kind it is cell-based. On the technique in general: Immunoblotting shows a protein as a band on a membrane.

The target of series [4] is T3, Protein cereblon/Bromodomain-containing protein 3 (Homo sapiens, UniProt Q15059+Q96SW2). The series is described as follows: PROTAC activity at CRBN/BRD3 in human MV4-11 cells assessed as degradation of BRD3 protein level incubated for 4 hrs by Western blotting assay. Type of series: cell-based.
Target sequence in this assay (Q15059 whole entry): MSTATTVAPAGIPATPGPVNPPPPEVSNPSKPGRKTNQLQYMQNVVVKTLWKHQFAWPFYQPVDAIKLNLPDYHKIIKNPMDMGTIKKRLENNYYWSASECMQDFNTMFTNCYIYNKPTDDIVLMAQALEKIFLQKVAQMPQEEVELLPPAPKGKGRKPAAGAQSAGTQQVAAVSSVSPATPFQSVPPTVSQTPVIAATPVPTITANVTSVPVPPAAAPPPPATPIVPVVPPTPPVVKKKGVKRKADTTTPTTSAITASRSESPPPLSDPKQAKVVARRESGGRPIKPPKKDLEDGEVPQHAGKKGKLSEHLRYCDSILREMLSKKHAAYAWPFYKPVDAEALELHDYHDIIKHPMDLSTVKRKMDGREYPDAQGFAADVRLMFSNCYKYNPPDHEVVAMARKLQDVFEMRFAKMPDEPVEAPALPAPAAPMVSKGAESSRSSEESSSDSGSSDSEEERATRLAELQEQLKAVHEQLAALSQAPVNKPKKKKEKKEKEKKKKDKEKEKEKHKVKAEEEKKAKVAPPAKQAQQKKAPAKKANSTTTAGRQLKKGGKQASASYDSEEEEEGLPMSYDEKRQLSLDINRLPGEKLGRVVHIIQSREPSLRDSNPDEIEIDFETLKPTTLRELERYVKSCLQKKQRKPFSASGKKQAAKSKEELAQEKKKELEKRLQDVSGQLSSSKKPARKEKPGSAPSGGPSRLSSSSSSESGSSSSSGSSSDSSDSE
Target sequence in this assay (Q96SW2 whole entry): as the sequence (Q96SW2 whole entry, looked up) above
For series [5], the target named is T2, Protein cereblon/Bromodomain-containing protein 4. Conditions: MV4-11, dose 0.1-1000 nM, time 4.0 hrs.
In series [6] the target is T3, Protein cereblon/Bromodomain-containing protein 3. The conditions noted are these: MV4-11, dose 0.1-1000 nM, time 4.0 hrs.
Target sequence in this assay (Q15059 2-726 limits assumed): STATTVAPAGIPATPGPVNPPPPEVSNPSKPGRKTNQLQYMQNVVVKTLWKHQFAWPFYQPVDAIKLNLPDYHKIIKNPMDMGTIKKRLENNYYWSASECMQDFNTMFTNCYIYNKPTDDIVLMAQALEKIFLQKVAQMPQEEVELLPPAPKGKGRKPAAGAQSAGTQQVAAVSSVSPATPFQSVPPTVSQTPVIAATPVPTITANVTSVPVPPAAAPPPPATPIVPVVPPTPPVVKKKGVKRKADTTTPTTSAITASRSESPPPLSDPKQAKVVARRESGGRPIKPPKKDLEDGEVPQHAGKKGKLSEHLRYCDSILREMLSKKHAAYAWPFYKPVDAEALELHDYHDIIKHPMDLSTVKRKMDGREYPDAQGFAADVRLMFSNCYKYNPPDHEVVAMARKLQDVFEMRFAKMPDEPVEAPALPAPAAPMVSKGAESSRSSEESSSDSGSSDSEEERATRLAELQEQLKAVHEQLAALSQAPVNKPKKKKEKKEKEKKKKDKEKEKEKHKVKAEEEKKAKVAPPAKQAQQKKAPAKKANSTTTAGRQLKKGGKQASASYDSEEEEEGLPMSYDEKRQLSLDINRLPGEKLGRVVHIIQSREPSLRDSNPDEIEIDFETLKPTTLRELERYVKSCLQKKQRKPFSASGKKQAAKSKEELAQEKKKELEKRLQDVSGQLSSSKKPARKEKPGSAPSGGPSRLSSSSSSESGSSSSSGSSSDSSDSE
Target sequence in this assay (Q96SW2 whole entry partner): as the sequence (Q96SW2 whole entry, looked up) above
The nature of series [7]: Toxicity in SCID mouse xenografted with human MV4-11 cells assessed as body weight loss at 20 mg/kg,ip qd administrated 5 days per week for 4 weeks. In kind it is organism-based. The conditions noted are these: in vivo, 672 h, time 28 day. On the technique in general: A xenograft is tissue or cells of one species grown in another, often human tumour cells in immunodeficient mice.

For series [8], the target named is T3, Protein cereblon/Bromodomain-containing protein 3. The conditions noted are these: T47D, dose 0.1-1000 nM, time 4.0 hrs.
Target sequence in this assay (Q15059 2-726 limits assumed): as the sequence (Q15059 2-726 limits assumed) above
Target sequence in this assay (Q96SW2 whole entry partner): as the sequence (Q96SW2 whole entry, looked up) above
Series [9] has the same target. Conditions: MOLM-13, dose 0.1-1000 nM, time 4.0 hrs.
Target sequence in this assay (Q15059 2-726 limits assumed): as the sequence (Q15059 2-726 limits assumed) above
Target sequence in this assay (Q96SW2 whole entry partner): as the sequence (Q96SW2 whole entry, looked up) above
Series [10] deals with T1, Protein cereblon/Bromodomain-containing protein 2. Conditions: HL-60, dose 0.1-1000 nM, time 4.0 hrs.
Target sequence in this assay (P25440 whole entry, looked up): as the sequence (P25440 whole entry, looked up) above
Target sequence in this assay (Q96SW2 whole entry, looked up): as the sequence (Q96SW2 whole entry, looked up) above
Series [11] addresses T3, Protein cereblon/Bromodomain-containing protein 3. Conditions: MDA-MB-453, dose 0.1-1000 nM, time 4.0 hrs.
Target sequence in this assay (Q15059 2-726 limits assumed): as the sequence (Q15059 2-726 limits assumed) above
Target sequence in this assay (Q96SW2 whole entry partner): as the sequence (Q96SW2 whole entry, looked up) above
The subject of series [12] is MDA-MB-231. The series is described as follows: Antiproliferative activity against human MDA-MB-231 cells assessed as cell growth inhibition incubated for 4 days by WST-8 assay. In kind it is functional, cell-based. Conditions: MDA-MB-231, 96 h. In general terms: Tetrazolium dyes change colour on reduction, which living cells bring about.
The test system of series [13] is MV4-11. Description: Antitumor activity against human MV4-11 cells xenografted in SCID mouse assessed as decrease in tumor growth at 20 mg/kg,ip qd administrated and measured after 48 hrs. In kind it is functional, organism-based.
The nature of series [14]: Toxicity in SCID mouse xenografted with human MDA-MB-231 cells assessed as body weight loss at 20 mg/kg,ip qd administrated 5 days per week for 4 weeks. In kind it is organism-based. Conditions: in vivo, 672 h, time 28 day.
Series [15] concerns HL-60. The series is described as follows: Antiproliferative activity against human HL-60 cells assessed as cell growth inhibition incubated for 4 days by WST-8 assay. In kind it is functional, cell-based. The conditions noted are these: HL-60, 96 h.
Series [16] addresses T1, Protein cereblon/Bromodomain-containing protein 2. Conditions: MDA-MB-453, dose 0.1-1000 nM, time 4.0 hrs.
Target sequence in this assay (P25440 whole entry, looked up): as the sequence (P25440 whole entry, looked up) above
Target sequence in this assay (Q96SW2 whole entry, looked up): as the sequence (Q96SW2 whole entry, looked up) above
Series [17] deals with T3, Protein cereblon/Bromodomain-containing protein 3. Conditions: MDA-MB-231, dose 0.1-1000 nM, time 4.0 hrs.
Target sequence in this assay (Q15059 2-726 limits assumed): as the sequence (Q15059 2-726 limits assumed) above
Target sequence in this assay (Q96SW2 whole entry partner): as the sequence (Q96SW2 whole entry, looked up) above
The target of series [18] is T1, Protein cereblon/Bromodomain-containing protein 2. The conditions noted are these: RS4-11, dose 0.1-1000 nM, time 4.0 hrs.
Target sequence in this assay (P25440 whole entry, looked up): as the sequence (P25440 whole entry, looked up) above
Target sequence in this assay (Q96SW2 whole entry, looked up): as the sequence (Q96SW2 whole entry, looked up) above
Series [19] has as its system T47D. Description: Antiproliferative activity against human T47D cells assessed as cell growth inhibition incubated for 4 days by WST-8 assay. In kind it is functional, cell-based. The conditions noted are these: 96 h.
Series [20] has as its target T1, Protein cereblon/Bromodomain-containing protein 2. The conditions noted are these: T47D, dose 0.1-1000 nM, time 4.0 hrs.
Target sequence in this assay (P25440 whole entry, looked up): as the sequence (P25440 whole entry, looked up) above
Target sequence in this assay (Q96SW2 whole entry, looked up): as the sequence (Q96SW2 whole entry, looked up) above
Series [21] deals with T3, Protein cereblon/Bromodomain-containing protein 3. Conditions: HL-60, dose 0.1-1000 nM, time 4.0 hrs.
Target sequence in this assay (Q15059 2-726 limits assumed): as the sequence (Q15059 2-726 limits assumed) above
Target sequence in this assay (Q96SW2 whole entry partner): as the sequence (Q96SW2 whole entry, looked up) above
The target in series [22] is T1, Protein cereblon/Bromodomain-containing protein 2. Conditions: MDA-MB-231, dose 0.1-1000 nM, time 4.0 hrs.
Target sequence in this assay (P25440 whole entry, looked up): as the sequence (P25440 whole entry, looked up) above
Target sequence in this assay (Q96SW2 whole entry, looked up): as the sequence (Q96SW2 whole entry, looked up) above
The subject of series [23] is MCF7. The series is described as follows: Antiproliferative activity against human MCF7 cells assessed as cell growth inhibition incubated for 4 days by WST-8 assay. The conditions noted are these: MCF7, 96 h. In kind it is functional, cell-based.
Series [24] concerns the target T1, Protein cereblon/Bromodomain-containing protein 2. Conditions: MCF7, dose 0.1-1000 nM, time 4.0 hrs.
The subject of series [25] is MV4-11. Description: Antiproliferative activity against human MV4-11 cells assessed as cell growth inhibition incubated for 4 days by WST-8 assay. In kind it is functional, cell-based. Conditions: MV4-11, 96 h.
Series [26] has as its target T3, Protein cereblon/Bromodomain-containing protein 3. Conditions: MCF7, dose 0.1-1000 nM, time 4.0 hrs.
In series [27] the test system is MDA-MB-453. Description: Antiproliferative activity against human MDA-MB-453 cells assessed as cell growth inhibition incubated for 4 days by WST-8 assay. In kind it is functional, cell-based. The conditions noted are these: MDA-MB-453, 96 h.
A short description of series [28]: Toxicity in SCID mouse xenografted with human MV4-11 cells assessed as toxic signs at 20 mg/kg,ip qd administrated 5 days per week for 4 weeks. In kind it is organism-based. Conditions: in vivo, 672 h, time 28 day.
Series [29] addresses T3, Protein cereblon/Bromodomain-containing protein 3. The conditions noted are these: RS4-11, dose 0.1-1000 nM, time 4.0 hrs.
Series [30] has as its system RS4-11. The series is described as follows: Antiproliferative activity against human RS4-11 cells assessed as cell growth inhibition incubated for 4 days by WST-8 assay. Type of series: functional, cell-based. Conditions: RS4-11, 96 h.
Series [31] addresses T1, Protein cereblon/Bromodomain-containing protein 2. The conditions noted are these: MOLM-13, dose 0.1-1000 nM, time 4.0 hrs.
Series [32] concerns MOLM-13. Description: Antiproliferative activity against human MOLM-13 cells assessed as cell growth inhibition incubated for 4 days by WST-8 assay. In kind it is functional, cell-based. Conditions: MOLM-13, 96 h.
The subject of series [33] is MV4-11. Description: Antitumor activity against human MV4-11 cells xenografted in SCID mouse assessed as inhibition of tumor growth at 20 mg/kg,ip qd administrated and measured after 1 week. Type of series: functional. Conditions: MV4-11, 168 h, time 1 weeks.
The nature of series [34]: Toxicity in SCID mouse xenografted with human MDA-MB-231 cells assessed as toxic signs at 20 mg/kg,ip qd administrated 5 days per week for 4 weeks. In kind it is organism-based. The conditions noted are these: in vivo, 672 h, time 28 day.
Series [35] deals with T3, Protein cereblon/Bromodomain-containing protein 3. Description: In vivo protac activity at CRBN/BRD3 in human MV4-11 cells xenografted in SCID mouse assessed as degradation of BRD3 protein at 20 mg/kg,ip administrated and measured at 3 to 48 hrs by Western blotting analysis. Type of series: functional, organism-based. The conditions noted are these: time lower 3.0 hrs, time upper […].

The target in series [36] is T1, Protein cereblon/Bromodomain-containing protein 2. Description: In vivo protac activity at CRBN/BRD2 in human MV4-11 cells xenografted in SCID mouse assessed as degradation of BRD2 protein at 20 mg/kg,ip administrated and measured at 3 to 48 hrs by Western blotting analysis. Type of series: functional, organism-based. The conditions noted are these: time lower 3.0 hrs, time upper […].

The subject of series [37] is MV4-11. Description: Antitumor activity against human MV4-11 cells xenografted in SCID mouse assessed as inhibition of tumor growth at 20 mg/kg,ip qd administrated 5 days per week for 4 weeks. In kind it is functional. The conditions noted are these: MV4-11, 672 h, time 28 day.
Series [38] has as its system MDA-MB-231. The series is described as follows: Antitumor activity against human MDA-MB-231 cells xenografted in SCID mouse assessed as inhibition of tumor growth at 20 mg/kg,ip qd administrated 5 days per week for 4 weeks. Type of series: functional. The conditions noted are these: MDA-MB-231, 672 h, time 28 day.

T2 sequence (Q96SW2 whole entry, looked up, other chains not shown): as the sequence (Q96SW2 whole entry, looked up) above

On to `Cc1nnc2n1-c1sc(C#Cc3cnn(C4CN(c5cccc6c5C(=O)N(C5CCC(=O)N(C)C5=O)C6=O)C4)c3)c(Cc3ccccc3)c1COC2` (stereo unspecified), for which the maximal effect (Emax) in series [1] was 5%; in series [5], 2%; in series [6] it was 12%. The half-maximal degradation concentration (DC50) in series [2], in series [3] and in series [4] was above 1000 nM in each case.

For `Cc1nnc2n1-c1sc(C#Cc3cnn(C4(CCN5CCN(C)CC5)CN(c5cccc6c5C(=O)N(C5CCC(=O)NC5=O)C6=O)C4)c3)c(Cc3ccccc3)c1COC2` (stereo unspecified), the Activity result in series [7], in [14], in series [28] and in series [34] was “Non-Toxic” each time. Further, the Emax in series [8] amounted to 25%; in series [9], 9%; in series [10], 18%; in series [11], 14%; in series [16] it was 0%; in series [17], 0%. The maximum response (Emax) in series [1] worked out at 0%; in series [18], 15%; in series [20], 6%; in [21], 10%; in [22], 0%; in series [24] it was 11%. Besides, the Emax in series [26] was 0%; in [29], 15%; in series [31] it was 0%; in [6], 0%. In addition, the 50% inhibitory concentration (IC50) in series [12] stood at 17.6 nM; in [15], 5.1 nM; in [19], 3.8 nM; in [23], 38.4 nM; in series [25], 11 nM; in series [27] it was 80.9 nM. Further, the IC50 in [30] is 4.6 nM; in [32], 69 nM. In addition, in [13], the outcome was Active. Besides, the inhibition in vivo at 20 mg/kg in series [33] is 56%.

For the compound `Cc1nnc2n1-c1sc(C#Cc3cnn(C4CN(c5cccc6c5C(=O)N(C5CCC(=O)NC5=O)C6=O)C4)c3)c(Cc3ccccc3)c1COC2` (stereo unspecified), the Emax worked out at 22% in series [8]; 13% in series [9]; 10% in series [10]; 5% in series [11]; 18% in series [16]; 19% in series [17]. Moreover, the Emax was 0% in series [1]; below 10% in series [18]; 0% in series [20]; 18% in series [21]; 0% in [22]; 0% in series [24]. The maximal effect (Emax) is 34% in [26], 6% in series [29], 27% in series [31] and 0% in series [6]. The IC50 in [12] was determined as 15.9 nM; in series [15] it was 4.9 nM; in series [19] it was 3.3 nM; in [23] it was 37.8 nM; in series [25], 17 nM; in series [27], 59.9 nM. In addition, the IC50 in series [30] turned out to be 6.4 nM; in series [32] it was 25 nM.

`Cc1nnc2n1-c1sc(C#Cc3cnn(C4CCN(c5cccc6c5C(=O)N(C5CCC(=O)NC5=O)C6=O)CC4)c3)c(Cc3ccccc3)c1COC2` (stereo unspecified): the Emax in series [1] was determined as 68%; in [6], 56%.

On to `Cc1nnc2n1-c1sc(C#Cc3cnn(C)c3)c(Cc3ccccc3)c1COC2`, for which the IC50 in series [12] is 151 nM; in series [15] it was 113 nM; in [19], 623 nM; in [23], 804 nM; in series [25], 149 nM; in series [27] it was 689 nM. In addition, the IC50 in series [30] turned out to be 186 nM; in series [32] it was 212 nM. Also, the maximum response (Emax) in series [1] and in series [6] was 0% in each case. Besides, the result in series [35] and in series [36] was inactive. Also, the results for the inhibition in vivo at 20 mg/kg in series [37] and in [38] were 63% and 49%, respectively.
